Data published in the supplement of paper PMC10307832.

What was measured:
Test in all cases: relative viability (nuclei count vs DMSO), 5 days (fraction); higher = more cells survive
Bortezomib + Linsitinib = compound: CC(C)C[C@H](NC(=O)[C@H](Cc1ccccc1)NC(=O)c1cnccn1)B(O)O [Bortezomib] + C[C@]1(O)C[C@@H](c2nc(-c3ccc4ccc(-c5ccccc5)nc4c3)c3c(N)nccn32)C1 [Linsitinib] (partner 1 µM)
Summary of the method: (§1)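 Medians of duplicate plates are given as relative viability. That measure is the nuclei count in treated wells divided by the count in vehicle wells. Counts were taken on 4× images of lung cancer cell lines in 1536-well plates, 5 days after pin-tool dosing the day after seeding with one drug alone or a fixed anchor-drug dose plus five library-drug doses (not always all listed) in √10 steps.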

[1] = compound: CC1=CC(=NN1)NC2=CC(=NC(=N2)/C=C/C3=CC=CC=C3)N4CCN(CC4)C + C[C@@H](Oc1cc(-c2cnn(C3CCNCC3)c2)cnc1N)c1c(Cl)ccc(F)c1Cl [Crizotinib] (partner 1 µM)
Summary of the method: as §1

[2] = compound: CC1=CC(=NN1)NC2=CC(=NC(=N2)/C=C/C3=CC=CC=C3)N4CCN(CC4)C + Nc1nc2[nH]cc(CCc3ccc(C(=O)N[C@@H](CCC(=O)O)C(=O)O)cc3)c2c(=O)[nH]1 [Pemetrexed] (partner 0.2 µM)
Summary of the method: as §1

Obatoclax + Tozasertib = compound: COC1=CC(c2cc3ccccc3[nH]2)=N/C1=C\c1[nH]c(C)cc1C [Obatoclax] + Cc1cc(Nc2cc(N3CCN(C)CC3)nc(Sc3ccc(NC(=O)C4CC4)cc3)n2)n[nH]1 [Tozasertib] (partner 0.1 µM)
Summary of the method: as §1

Cell Line	relative viability (Bortezomib + Linsitinib; first compound 0.0002 µM)	relative viability (Bortezomib + Linsitinib; first compound 0.000632 µM)	relative viability (Bortezomib + Linsitinib; first compound 0.002 µM)	relative viability (Bortezomib + Linsitinib; first compound 0.006325 µM)	relative viability (Bortezomib + Linsitinib; first compound 0.02 µM)	relative viability ([1]; first compound 0.08 µM)	relative viability ([1]; first compound 0.253 µM)	relative viability ([1]; first compound 0.8 µM)	relative viability ([1]; first compound 2.53 µM)	relative viability ([1]; first compound 8 µM)	relative viability ([2]; first compound 0.08 µM)	relative viability ([2]; first compound 0.253 µM)	relative viability ([2]; first compound 0.8 µM)	relative viability ([2]; first compound 2.53 µM)	relative viability ([2]; first compound 8 µM)	relative viability (Obatoclax + Tozasertib; first compound 0.01 µM)	relative viability (Obatoclax + Tozasertib; first compound 0.03162 µM)	relative viability (Obatoclax + Tozasertib; first compound 0.1 µM)	relative viability (Obatoclax + Tozasertib; first compound 0.3162 µM)	relative viability (Obatoclax + Tozasertib; first compound 1 µM)
NCI-H1437	1.04	1.1	0.885	0.0922	0.101	0.773	0.922	0.898	0.999	0.225	0.422	0.325	0.295	0.212	0.162	0.414	0.439	0.437	0.457	0.521
NCI-H1651	0.943	0.996	0.31	0.133	0.12	0.839	0.911	0.808	0.738	0.482	0.39	0.58	0.571	0.518	0.223	0.796	0.752	0.737	0.552	0.468
NCI-H1666	0.791	0.777	0.932	0.226	0.2	0.969	0.863	0.822	0.453	0.187	0.735	0.914	0.839	0.846	0.792	0.634	0.739	0.694	0.367	0.398
NCI-H1734	0.898	0.674	0.814	0.192	0.129	0.632	0.722	0.522	0.331	0.123	0.409	0.384	0.409	0.238	0.199	0.296	0.264	0.265	0.236	0.226
NCI-H1755	1.01	0.955	1	0.323	0.149	0.863	0.929	0.78	0.593	0.105	0.428	0.381	0.462	0.32	0.294	0.542	0.537	0.574	0.574	0.515
NCI-H1915	1.13	1.13	1.01	1.07	0.0602	0.868	0.92	0.869	0.593	0.248	0.523	0.553	0.452	0.37	0.137	0.401	0.405	0.424	0.382	0.414
NCI-H1944	1.13	1.06	1.06	1.23	0.627	1.04	1.24	1.11	0.62	0.275	0.566	0.652	0.611	0.365	0.312	0.258	0.254	0.287	0.263	0.24
NCI-H1975	0.965	0.964	0.189	0.144	0.125	0.91	0.958	0.548	0.186	0.147	0.281	0.281	0.286	0.187	0.137	0.706	0.837	–	0.658	0.131
NCI-H1993	0.683	0.766	0.733	0.499	0.58	0.883	–	0.739	0.551	0.526	0.58	0.65	0.592	0.516	0.351	0.594	0.637	0.618	0.604	0.624
NCI-H2009	1.12	1.22	1.18	0.0695	0.058	1.06	0.94	1.02	0.534	0.22	1.09	1.03	0.982	0.909	0.313	0.771	0.824	0.703	0.291	0.255
NCI-H2023	0.68	0.723	0.711	0.102	0.0845	0.631	0.611	0.343	0.0794	0.0532	0.214	0.283	0.198	0.117	0.0581	0.365	0.354	0.297	0.145	0.151
NCI-H2085	0.901	0.901	0.726	0.262	0.145	0.859	0.831	0.753	0.343	0.266	0.994	0.982	0.952	0.325	0.258	0.751	0.826	0.895	0.776	0.645
NCI-H2087	0.944	1.15	0.764	0.11	0.215	0.968	0.58	0.769	0.567	0.179	0.63	0.652	0.652	0.566	0.162	0.248	0.239	0.229	0.206	0.161
NCI-H2126	0.74	0.711	0.68	0.738	0.374	1.01	1	0.994	0.916	0.529	0.696	0.649	0.633	0.569	0.426	0.908	0.827	0.87	0.832	0.819
NCI-H2228	0.671	0.717	0.506	0.157	0.133	0.586	0.45	0.33	0.0992	0.0441	0.306	0.309	0.276	0.0818	0.055	0.278	0.318	0.29	0.257	0.21
NCI-H2347	0.93	0.92	0.848	0.29	0.325	0.855	0.784	0.545	0.573	0.262	0.418	0.415	0.447	0.397	0.379	0.504	0.684	–	0.549	0.423
